The nature of series [1]: Cytotoxicity assay (cell counting kit-8). In kind it is cell-based. The conditions noted are these: human; 293T cells, CCK-8, 24h exposure. The protocol: Selected inhibitors were further evaluated in cytotoxicity assay using a cell counting kit-8 assay. […] After 24h of culture, 1μL of drugs were added to each well. After another 24h of culture, 10 μL of CCK-8 was added to each well. Absorbance was quantified at wavelength 450 nm using an EnVision multilabel reader (PerkinElmer) after 2h at room temperature.

For series [2], the system named is DRV-resistant HIV-1 variants. In words: HIV-1 infectivity assay, DRV-resistant. The conditions noted are these: Human immunodeficiency virus 1, read-out: inhibition against DRV-resistant HIV-1 variants. The format is cell-based. The procedure:
(§1) . Inhibitors dissolved in dimethylsulfoxide (DMSO) and diluted to appropriate concentrations, were added into culture medium at 5 hours of post-transfection. After incubating for 48 hours at temperature 37 °C, pseudotyped viruses in 10 μL of supernatant were used to infect SupT1 cells for 48 hours, followed by measuring luciferase activity of newly infected cells using Centro LB960 (Berthold).
(§2) Fig 6 Inhibition of inhibitors against wild-type and DRV-resistant HIV-1 variants.

For another series, the system named is wild-type HIV-1 variants. Put plainly: HIV-1 infectivity assay, wild-type. In kind it is cell-based. The conditions noted are these: Human immunodeficiency virus 1, read-out: inhibition against wild-type HIV-1 variants. The protocol: as §1
For the assay using wild type HIV-1, 1×10^6 SupT1 cells were infected with 100 μL HIV-1 NL4-3 in the presence of 100 nM chemicals and 10 μg/mL polybrene, keeping a total volume of 500 μL (Spin infection at 1800rpm, 45min). Cells were washed once in the next morning and medium were replaced with fresh medium containing 100 nM chemicals. At 48 hpi, viruses were harvested and 50 μL of viruses were used to infect TZM-bl cells, followed by measuring luciferase activity in the infected cells.
as §2

The target in a further series is T1, wild-type HIV-1 PR (Human immunodeficiency virus type 1 group M subtype B, UniProt P04585).
T1 construct: HIV-1 protease was cloned and heterologously expressed in Escherichia coli and purified; made in house; host or cells: Escherichia coli
Put plainly: In vitro HIV-1 PR activity assay (FRET). In kind it is biochemical. The procedure: (§3) The inhibitory effect of all new designed inhibitors were measured using fluorescence resonance energy transfer (FRET) method. […] The energy transfer donor (EDANS) and acceptor (DABCYL) dyes are labeled at two ends of the peptide to perform FRET. Excitation and emission wavelengths were set at 340 nm and 490 nm. Inhibitors were dissolved in dimethylsulfoxide (DMSO) and diluted to appropriate concentrations. HIV-1 protease was cloned and heterologously expressed in Escherichia coli and purified. The experiment was carried out in 96-well plates. The FRET assay reaction buffer contained 0.1 M sodium acetate, 1 M sodium chloride, 1 mM ethylenediaminetetraacetic acid (EDTA), 1 mM dithiothreitol (DTT), 2% DMSO and 1 mg/mL bovine serum albumin (BSA) with an adjusted pH 4.7. Protease and inhibitor were mixed and incubated for 20–30 mins at room temperature and then the substrate was added. Each reaction was recorded for about 10 mins. From plots of concentration versus the calculated percent inhibition, IC50 values were determined.
as §3, with “20-30” for “20–30”, “mins.” for “mins. From plots of concentration versus the calculated percent inhibition, IC50 values were determined.”

Another series relates to HIV-1 protease. Details: method as in PMID 32057582. The conditions noted are these: previously reported PIs; cited from earlier work.

Usually CC50 stands for the concentration that lowers cell viability or growth by half. One may read the inhibition as the relative decrease from the control value, in per cent. Broadly, the melting point is the temperature, or range, at which the solid turns liquid. For orientation: IC50 means the concentration that inhibits the measured activity by half. `COc1ccc(S(=O)(=O)N(C[C@@H](O)[C@H](Cc2ccccc2)NC(=O)[C@@H]2CCCNC2)C2CC2)cc1` [22a, (R)-N-((2S,3R)-4-((N-cyclopropyl-4-methoxyphenyl)sulfonamido)-3-hydroxy-1-phenylbutan-2-yl)piperidine-3-carboxamide] displayed a melting point of 162.8 to 164.3 °C. Also, in series [1], the CC50 at 24 h is over 100 µM. In addition, in series [2], the inhibition at 10 µM came to 26%. The inhibition at 10 µM with wild-type HIV-1 variants was 42%. The IC50 against wild-type HIV-1 PR stood at 3.61 nM. For the same compound, the “improvement of potency over 23a” value at wild-type HIV-1 PR (ratio of IC50 values, (R)- vs (S)-configuration) was 120 fold.
`COc1ccc(S(=O)(=O)N(C[C@@H](O)[C@H](Cc2ccccc2)NC(=O)[C@@H]2CCCN(C)C2)C2CC2)cc1` [24a, (R)-N-((2S,3R)-4-((N-cyclopropyl-4-methoxyphenyl)sulfonamido)-3-hydroxy-1-phenylbutan-2-yl)-1-methylpiperidine-3-carboxamide]: the melting point was in the range of 86.4 to 88.2 °C. Besides, the CC50 at 24 h in series [1] is over 100 µM. Also, in series [2], the inhibition at 10 µM came out at 8%. Also, in the series with wild-type HIV-1 variants, the inhibition at 10 µM turned out to be 16%. For the same compound, the IC50 against wild-type HIV-1 PR came to 8.07 ± 3.59 nM.
Regarding `CN1CCC[C@@H](C(=O)N[C@@H](Cc2ccccc2)[C@H](O)CN(C2CC2)S(=O)(=O)c2ccc(C(F)(F)F)cc2)C1` [24b, (R)-N-((2S,3R)-4-((N-cyclopropyl-4-(trifluoromethyl)phenyl)sulfonamido)-3-hydroxy-1-phenylbutan-2-yl)-1-methylpiperidine-3-carboxamide], the melting point lay in the range of 82.9 to 84.7 °C. Besides, the CC50 at 24 h in series [1] was over 100 µM. The inhibition at 10 µM in series [2] was found to be 7%. Besides, the inhibition at 10 µM in the series on wild-type HIV-1 variants is 12%. On wild-type HIV-1 PR, this compound displayed an IC50 of 9.28 ± 5.66 nM.
Regarding `COc1ccc(S(=O)(=O)N(C[C@@H](O)[C@H](Cc2ccccc2)NC(=O)OCCN2CCOCC2)C2CC2)cc1` [A], the IC50 with HIV-1 protease was 53 nM.
For the compound `O=C(N[C@@H](Cc1ccccc1)[C@H](O)CN(C1CC1)S(=O)(=O)c1ccc(C(F)(F)F)cc1)N1CCOCC1` [B], the IC50 with HIV-1 protease was 47 nM.
